Reference: US5124146A, “Differential delivery of therapeutic agents across the blood brain barrier” (The State of Oregon Acting by and through the State Board …, priority 1991, dated 1992)
“And” between values parts separate entries of the source, which are not always exact repeats. Identical values can stand only once.

Experiments:
[1] = injected directly into the rat brain; cited from earlier work
[2] = tested on: antigentamicin antibody; assay: precipitable radioactivity (% bound) in tissue and serum after antigentamicin antibody (immune serum); assay type: in vivo
Source text: (§1) Pre: Precipitable radioactivity from serum prior to antibody
(§2) Post: Precipitable radioactivity from serum after antibody administration
(§3) PPer: Precipitable radioactivity from serum after perfusion of rat
(§4) % Bound: Percent precipitable radioactivity from tissue sample

[3] = percent clearance of activity from serum by perfusion; assay type: in vivo, Sprague-Dawley rat; settings: for C1: percent clearance of activity from serum: individual rat, postperfusion/preperfusion × 100
Experimental: Subsequently, dosages of ^125 I-gentamicin were administered intravenously.
C1: Percent clearance of activity from serum

[4] = tested on: serum proteins; assay: non-specific precipitation/binding of gentamicin to serum proteins and tissue (pre-antibody serum, or non-immune serum); assay type: in vivo, Sprague-Dawley rat; settings: non-immune serum, pre and post serum
Source text: as §1, §2, §3, §4

CCCCC/C=C\C/C=C\C/C=C\C/C=C\CCCC(=O)O [arachidonic acid]
effect on BBB permeability [1]: increase BBB permeability

gentamicin
% Bound: percent precipitable radioactivity from tissue sample, LH (non abscess bearing hemisphere) ([2]; individual rat): 49% and 55% and 52% and 41% and 50% | % Bound, Post: precipitable radioactivity from serum after antibody administration ([2]; individual rat, 15 minutes after antibody): 97% and 96% and 94% | % Bound, P-Per: precipitable radioactivity from serum after perfusion of rat ([2]; individual rat, after perfusion): 75% and 70% and 79% and 77% | % Bound (tissue), AB (abscess), mean value ([2]; mean): 56% | % Bound (tissue), LH (non abscess bearing hemisphere), mean value ([2]; mean): 51% | % Bound, Post: serum precipitation after antibody, mean value ([2]; mean, 15 minutes after antibody): 96% | % Bound, P-Per: serum precipitation after perfusion, mean value ([2]; mean, after perfusion): 70% | C1: percent clearance of activity from serum ([3]; Immune serum): 99% and 97% and 92% and 95% and 94% and 96% | C1: percent clearance of activity from serum, mean value ([3]; Immune serum): 96% | C1: percent clearance of activity from serum ([3]; Non immune serum): 84% and 86% and 85% | C1: percent clearance of activity from serum, mean value ([3]; Non immune serum): 85% | non-specific precipitation with serum proteins (in words) [4]: nonspecifically precipitates with serum proteins
